# pIC50: −log10 of the molar value.
# Biological target: human PAD4 (hPAD4) (Homo sapiens (Human), UniProt Q9UM07)
# Test: RFMS Human PAD4 Functional Assay 1
# Format: biochemical
# Details: RFMS assay 1; 5 nM hPAD4, 250 μM BAEE substrate, 50 μM calcium, 37° C.
# In short: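 Recombinant hPAD4 (5 nM) was preincubated with compound (top 50 μM, 0.5% DMSO) for 30 min at 37 °C, then reacted with 250 μM BAEE for 90 min at 37 °C in pH 7.5 HEPES buffer with 50 μM calcium and 5 μM TPEN. Product was derivatized with phenyl glyoxal and quantified by RapidFire MS.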
# Chain of human PAD4 (hPAD4) (Q9UM07 whole entry): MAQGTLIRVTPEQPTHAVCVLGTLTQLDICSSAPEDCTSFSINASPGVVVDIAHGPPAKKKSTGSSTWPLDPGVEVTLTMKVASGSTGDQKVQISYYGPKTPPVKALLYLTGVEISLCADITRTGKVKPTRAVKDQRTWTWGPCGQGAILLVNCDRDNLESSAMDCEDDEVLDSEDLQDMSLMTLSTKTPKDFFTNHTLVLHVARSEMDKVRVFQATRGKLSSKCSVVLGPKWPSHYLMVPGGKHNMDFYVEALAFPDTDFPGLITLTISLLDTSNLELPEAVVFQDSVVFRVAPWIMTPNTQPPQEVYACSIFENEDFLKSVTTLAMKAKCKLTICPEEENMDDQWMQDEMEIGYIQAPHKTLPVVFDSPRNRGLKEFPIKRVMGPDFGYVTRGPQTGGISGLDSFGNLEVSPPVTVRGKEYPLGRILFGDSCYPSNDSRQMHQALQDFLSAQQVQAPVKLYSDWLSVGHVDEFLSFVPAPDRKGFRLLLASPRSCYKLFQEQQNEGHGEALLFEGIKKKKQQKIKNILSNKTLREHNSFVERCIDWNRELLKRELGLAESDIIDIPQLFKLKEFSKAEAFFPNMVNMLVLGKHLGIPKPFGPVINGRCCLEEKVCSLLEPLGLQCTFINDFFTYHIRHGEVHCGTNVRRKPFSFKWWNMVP
row,SMILES,pIC50
1,"Cc1c(-c2cc3ccc(-c4cccc(O)c4F)cc3n2CC2CC2)oc2cc(C(=O)N3C[C@H](N)C[C@@H](F)C3)ccc12 [Example 198, ((3R,5R)-3-Amino-5-fluoropiperidin-1-yl)(2-(1-(cyclopropylmethyl)-6-(2-fluoro-3-hydroxyphenyl)-1H-indol-2-yl)-3-methylbenzofuran-6-yl)methanone]",5.49
2,"Cc1c(-c2cc3ccc(-c4ccc(C(N)=O)c(Cl)c4)cc3n2CC2CC2)oc2cc(C(=O)N3C[C@H](N)C[C@@H](F)C3)ccc12 [Example 199, 4-(2-(6-((3R,5R)-3-Amino-5-fluoropiperidine-1-carbonyl)-3-methylbenzofuran-2-yl)-1-(cyclopropylmethyl)-1H-indol-6-yl)-2-chlorobenzamide]",5.47
3,"Cc1c(-c2cc3ccc(N4CCNCC4)cc3n2CC2CC2)oc2cc(C(=O)N3C[C@H](N)C[C@@H](F)C3)ccc12 [Example 201, ((3R,5R)-3-Amino-5-fluoropiperidin-1-yl)(2-(1-(cyclopropylmethyl)-6-(piperazin-1-yl)-1H-indol-2-yl)-3-methylbenzofuran-6-yl)methanone]",5.71
4,"Cc1c(-c2cc3ccc(N4CCC(N)CC4)cc3n2CC2CC2)oc2cc(C(=O)N3C[C@H](N)C[C@@H](F)C3)ccc12 [Example 202, ((3R,5R)-3-Amino-5-fluoropiperidin-1-yl)(2-(6-(4-aminopiperidin-1-yl)-1-(cyclopropylmethyl)-1H-indol-2-yl)-3-methylbenzofuran-6-yl)methanone]",5.97
5,"COc1cc(C(=O)N2CC3CCC2[C@@H]3N)cc2oc(-c3cc4ccc(C(C)(C)O)nc4n3CC3CC3)c(C)c12 (stereo partly drawn) [Example 203, ((7R)-7-Amino-2-azabicyclo[2.2.1]heptan-2-yl)(2-(1-(cyclopropylmethyl)-6-(2-hydroxypropan-2-yl)-1H-pyrrolo[2,3-b]pyridin-2-yl)-4-methoxy-3-methylbenzofuran-6-yl)methanone]",7.92
6,"Cc1c(-c2cc3ccc(C(C)(C)O)cc3n2CC2CC2)oc2cc(C(=O)N3CC4CCC3[C@@H]4N)ccc12 (stereo partly drawn) [Example 204, ((7R)-7-Amino-2-azabicyclo[2.2.1]heptan-2-yl)(2-(1-(cyclopropylmethyl)-6-(2-hydroxypropan-2-yl)-1H-indol-2-yl)-3-methylbenzofuran-6-yl)methanone]",7.41
7,"COc1cc(C(=O)N2CC3CCC2[C@@H]3N)cn2nc(-c3cc4ccc(-c5ccccc5N5CCNC5=O)nc4n3CC3CC3)c(C)c12 (stereo partly drawn) [Example 205, 1-[2-(2-{6-[(7R)-7-Amino-2-azabicyclo[2.2.1]heptane-2-carbonyl]-4-methoxy-3-methylpyrazolo[1,5-a]pyridin-2-yl}-1-(cyclopropylmethyl)-1H-pyrrolo[2,3-b]pyridin-6-yl)phenyl]imidazolidin-2-one]",7.22
8,"COc1cc(C(=O)N2CC3CCC2[C@@H]3N)cn2nc(-c3cc4ccc(-c5ccc(C(N)=O)c(C)c5)nc4n3CC3CC3)c(C)c12 (stereo partly drawn) [Example 206, 4-(2-{6-[(7R)-7-Amino-2-azabicyclo[2.2.1]heptane-2-carbonyl]-4-methoxy-3-methylpyrazolo[1,5-a]pyridin-2-yl}-1-(cyclopropylmethyl)-1H-pyrrolo[2,3-b]pyridin-6-yl)-2-methylbenzamide]",7.15
9,"COc1cc(C(=O)N2C[C@H](N)C[C@@H](F)C2)cn2nc(-c3cc4ccc(-c5ccccc5CO)cc4n3CC3CC3)c(C)c12 [Example 209, [2-(2-{6-[(3R,5R)-3-Amino-5-fluoropiperidine-1-carbonyl]-4-methoxy-3-methylpyrazolo[1,5-a]pyridin-2-yl}-1-(cyclopropylmethyl)-1H-indol-6-yl)phenyl]methanol]",5.97
10,"COc1cc(C(=O)N2C[C@H](N)C[C@@H](F)C2)cn2nc(-c3cc4ccc(-c5cccc(CO)c5)cc4n3CC3CC3)c(C)c12 [Example 210, [3-(2-{6-[(3R,5R)-3-Amino-5-fluoropiperidine-1-carbonyl]-4-methoxy-3-methylpyrazolo[1,5-a]pyridin-2-yl}-1-(cyclopropylmethyl)-1H-indol-6-yl)phenyl]methanol]",6.31
11,"COc1cc(C(=O)N2C[C@H](N)C[C@@H](F)C2)cn2nc(-c3cc4ccc(-c5cccc(CNS(C)(=O)=O)c5)cc4n3CC3CC3)c(C)c12 [Example 211, N-{[3-(2-{6-[(3R,5R)-3-Amino-5-fluoropiperidine-1-carbonyl]-4-methoxy-3-methylpyrazolo[1,5-a]pyridin-2-yl}-1-(cyclopropylmethyl)-1H-indol-6-yl)phenyl]methyl}methanesulfonamide]",5.98
12,"COc1cccc(-c2ccc3cc(-c4nn5cc(C(=O)N6C[C@H](N)C[C@@H](F)C6)cc(OC)c5c4C)n(CC4CC4)c3c2)c1 [Example 212, (3R,5R)-1-{2-[1-(Cyclopropylmethyl)-6-(3-methoxyphenyl)-1H-indol-2-yl]-4-methoxy-3-methylpyrazolo[1,5-a]pyridine-6-carbonyl}-5-fluoropiperidin-3-amine]",5.77
13,"COc1cc(C(=O)N2C[C@H](N)C[C@@H](F)C2)cn2nc(-c3cc4ccc(-c5cccc(NS(C)(=O)=O)c5)cc4n3CC3CC3)c(C)c12 [Example 213, N-[3-(2-{6-[(3R,5R)-3-Amino-5-fluoropiperidine-1-carbonyl]-4-methoxy-3-methylpyrazolo[1,5-a]pyridin-2-yl}-1-(cyclopropylmethyl)-1H-indol-6-yl)phenyl]methanesulfonamide]",6.17
14,"COc1cc(C(=O)N2C[C@H](N)C[C@@H](F)C2)cn2nc(-c3cc4ccc(-c5ccc(NC(C)=O)cc5)cc4n3CC3CC3)c(C)c12 [Example 214, N-[4-(2-{6-[(3R,5R)-3-Amino-5-fluoropiperidine-1-carbonyl]-4-methoxy-3-methylpyrazolo[1,5-a]pyridin-2-yl}-1-(cyclopropylmethyl)-1H-indol-6-yl)phenyl]acetamide]",6.82
15,"COc1cc(C(=O)N2C[C@H](N)C[C@@H](F)C2)cn2nc(-c3cc4ccc(-c5cccc(CNC(C)=O)c5)cc4n3CC3CC3)c(C)c12 [Example 215, N-{[3-(2-{6-[(3R,5R)-3-Amino-5-fluoropiperidine-1-carbonyl]-4-methoxy-3-methylpyrazolo[1,5-a]pyridin-2-yl}-1-(cyclopropylmethyl)-1H-indol-6-yl)phenyl]methyl}acetamide]",6.21
16,"COc1cc(C(=O)N2C[C@H](N)C[C@@H](F)C2)cn2nc(-c3cc4ccc(-c5ccc(NS(C)(=O)=O)cc5)cc4n3CC3CC3)c(C)c12 [Example 216, N-[4-(2-{6-[(3R,5R)-3-Amino-5-fluoropiperidine-1-carbonyl]-4-methoxy-3-methylpyrazolo[1,5-a]pyridin-2-yl}-1-(cyclopropylmethyl)-1H-indol-6-yl)phenyl]methanesulfonamide]",6.57
17,"COc1cc(C(=O)N2C[C@H](N)C[C@@H](F)C2)cn2nc(-c3cc4ccc(-c5ccc(C(=O)N(C)C)cc5)cc4n3CC3CC3)c(C)c12 [Example 217, 4-(2-{6-[(3R,5R)-3-Amino-5-fluoropiperidine-1-carbonyl]-4-methoxy-3-methylpyrazolo[1,5-a]pyridin-2-yl}-1-(cyclopropylmethyl)-1H-indol-6-yl)-N,N-dimethylbenzamide]",6.59
18,"COc1cc(C(=O)N2C[C@H](N)C[C@@H](F)C2)cn2nc(-c3cc4ccc(-c5ccc6[nH]ncc6c5)cc4n3CC3CC3)c(C)c12 [Example 218, (3R,5R)-1-{2-[1-(Cyclopropylmethyl)-6-(1H-indazol-5-yl)-1H-indol-2-yl]-4-methoxy-3-methylpyrazolo[1,5-a]pyridine-6-carbonyl}-5-fluoropiperidin-3-amine]",6.26
19,"COc1cc(C(=O)N2C[C@H](N)C[C@@H](F)C2)cn2nc(-c3cc4ccc(-c5ccc6c(cnn6C)c5)cc4n3CC3CC3)c(C)c12 [Example 219, (3R,5R)-1-{2-[1-(Cyclopropylmethyl)-6-(1-methyl-1H-indazol-5-yl)-1H-indol-2-yl]-4-methoxy-3-methylpyrazolo[1,5-a]pyridine-6-carbonyl}-5-fluoropiperidin-3-amine]",6.34
20,"COc1cc(C(=O)N2C[C@H](N)C[C@@H](F)C2)cn2nc(-c3cc4ccc(-c5cccc(-c6nn[nH]n6)c5)cc4n3CC3CC3)c(C)c12 [Example 220, (3R,5R)-1-{2-[1-(Cyclopropylmethyl)-6-[3-(2H-1,2,3,4-tetrazol-5-yl)phenyl]-1H-indol-2-yl]-4-methoxy-3-methylpyrazolo[1,5-a]pyridine-6-carbonyl}-5-fluoropiperidin-3-amine]",5.36
21,"COc1cc(C(=O)N2C[C@H](N)C[C@@H](F)C2)cn2nc(-c3cc4ccc(-c5ccc(CNC(C)=O)cc5)cc4n3CC3CC3)c(C)c12 [Example 221, N-{[4-(2-{6-[(3R,5R)-3-Amino-5-fluoropiperidine-1-carbonyl]-4-methoxy-3-methylpyrazolo[1,5-a]pyridin-2-yl}-1-(cyclopropylmethyl)-1H-indol-6-yl)phenyl]methyl}acetamide]",6.29
22,"COc1cc(C(=O)N2C[C@H](N)C[C@@H](F)C2)cn2nc(-c3cc4ccc(-c5cccc6[nH]ncc56)cc4n3CC3CC3)c(C)c12 [Example 222, (3R,5R)-1-{2-[1-(Cyclopropylmethyl)-6-(1H-indazol-4-yl)-1H-indol-2-yl]-4-methoxy-3-methylpyrazolo[1,5-a]pyridine-6-carbonyl}-5-fluoropiperidin-3-amine]",6.00
23,"COc1cc(C(=O)N2C[C@H](N)C[C@@H](F)C2)cn2nc(-c3cc4ccc(-c5ccccc5C(N)=O)cc4n3CC3CC3)c(C)c12 [Example 223, 2-(2-{6-[(3R,5R)-3-Amino-5-fluoropiperidine-1-carbonyl]-4-methoxy-3-methylpyrazolo[1,5-a]pyridin-2-yl}-1-(cyclopropylmethyl)-1H-indol-6-yl)benzamide]",6.89
